# According to patent publication US8278086B2, “Enhancement of vanadium-containing phosphatase inhibitors” (Roche Diagnostics Operations, Inc., priority 2007, dated 2012):
# Columns and labels:
# [1] = tested on: phosphatases in insect cell (SF9) lysate; assay: Inhibition of phosphatases in insect cell lysate; assay type: biochemical; settings: 1 mM orthovanadate (alone or with 27 mM mannitol), FIG. 4
# Experimental: 270 mg insect cells (SF9) were collected, washed 3 times with 50 mM Hepes, 50 mM NaCl pH 7.0 and lysed using 2.5 ml M-Per (Pierce) for 10 min. After centrifugation the lysate was collected as the supernatant.
# (§1) Subsequently, an aliquot of 10 μl was transferred from each mixture into a well of a microwell plate. 5 μl of a solution of a test peptide (R-R-L-I-E-D-A-E-pY-A-A-R-G (SEQ ID NO: 1); 1 mM in water) and 10 μl of a buffer containing 0.1 mM CaCl2, 50 mM Tris pH 7.0 were added to each well and incubated for 30 min at 37° C. Free phosphate resulting from the enzymatic hydrolysis was then detected via addition of 100 μl of a 1 M HCl solution additionally containing 0.034% [w/v] malachite green, 10 mM sodium molybdate and 3.4% [v/v] ethanol. The detection was performed for 10 min at RT while constantly agitating the microwell plate. Relative concentrations of free phosphate were detected following the determination of the extinction (620 nm) of each reaction well.
# [2] = tested on: phosphatases in COS7 cell lysate; assay: Inhibition of phosphatases in COS7 cell lysate; assay type: biochemical; settings: 1 mM orthovanadate (alone or with 27 mM mannitol), FIG. 5
# Experimental: COS7 cells were collected, washed 3 times with 50 mM Hepes, 50 mM NaCl pH 7.0 and lysed using 5 ml M-Per (Pierce) for 10 min. After centrifugation the lysate was collected as the supernatant.
# as §1, with “to” for “into a well of”, “1M” for “1 M”, “3.4” for “3.4%”
# phosphatase = settings: in the presence of complex-forming reagents like EDTA; cited from earlier work
smiles,measurement,setting,value
"[O]=[V]([O-])([O-])[O-] [Na3VO4, orthovanadate]",phosphatase activity (residual),[1],14%
same,phosphatase activity (residual),[2],52%
same,factor by which the phosphatase inhibiting effect is reduced,phosphatase,"about 1,000"
